Experimental data from patent publication US20240199572A1, “COMPOUNDS, COMPOSITIONS, AND METHODS FOR TREATING TYPE 2 DIABETES AND DEMENTIA” (THE BOARD OF TRUSTEES OF THE UNIVERSITY OF ILLINOIS, priority 2021, published 2024).

Tests used:
ABCA1 mRNA = ABCA1 mRNA - HepG2 (qRT-PCR); format: cell-based, human; conditions: Homo sapiens; ABCA1 mRNA-HepG2 assay (Table 7)
Description: qRT-PCR. For cell samples, treated cells were lysed with RLT plus lysis buffer (Qiagen). RNA was isolated with Qiagen RNEASY® Plus columns per manufacturer instructions, then reverse-transcribed to cDNA using […]® III Reverse Transcriptase (200 U/μL, Invitrogen) per supplier protocol. qPCR experiments were either performed with TAQMAN® gene expression master mix (Invitrogen) on a StepOne™ qPCR instrument or with […]® SYBR® Green SuperMix (Quanta Biosciences) on CFX Connect™ Real-Time PCR Detection System (BioRad), with fold-change quantified by ΔΔCt. For animal samples, 100 mg tissue was homogenized in 1 mL acid-guanidinium-phenol based reagent sold under the tradename TRIZOL® (Ambion), mixed vigorously in chloroform, and separated by centrifugation. Aqueous layer containing RNA was added to Qiagen RNEASY® Plus column; remaining stops were as described above for cell lysates.

ABCA1 = ABCA1 firefly reporter assay in CCF-001 cells; format: cell-based; conditions: ABCA1 firefly reporter assay in CCF-001 cells (Table 8)

For CCOc1ccc(N(C)S(=O)(=O)c2ccsc2C(=O)Nc2cccc(C(=O)CC)c2)cc1 [CL1-62, 3-(N-(4-ethoxyphenyl)-N-methylsulfamoyl)-N-(3-propionylphenyl)thiophene-2-carboxamide], the EC50 (ABCA1 mRNA) was > 5000 nM.
With CCOc1ccc(N(C)S(=O)(=O)c2ccsc2C(=O)Nc2cccc(C(=O)OC)c2)cc1 [CL1-87, Methyl 3-(3-(N-(4-ethoxyphenyl)-N-methylsulfamoyl)thiophene-2-carboxamido) benzoate] the EC50 (ABCA1) was 3970 nM and the EC50 (ABCA1 mRNA) was > 5000 nM.
In the case of CCOc1ccc(N(C)S(=O)(=O)c2ccsc2C(=O)Nc2cccc(C(=O)OC(C)C)c2)cc1 [CL1-88, Isopropyl 3-(3-(N-(4-ethoxyphenyl)-N-methylsulfamoyl)thiophene-2-carboxamido) benzoate], the EC50 (ABCA1 mRNA) is reported as 4500 nM.
In the case of CCOC(=O)c1cccc(NC(=O)c2sccc2S(=O)(=O)N(C)c2cccc(OCC)c2)c1 [CL2-1, Ethyl 3-(3-(N-(3-ethoxyphenyl)-N-methylsulfamoyl)thiophene-2-carboxamido)benzoate], the EC50 (ABCA1) is reported as 4640 nM and the EC50 (ABCA1 mRNA) is reported as > 5000 nM.
Molecule CCCOc1ccc(N(C)S(=O)(=O)c2ccsc2C(=O)Nc2cccc(C(=O)OCC)c2)cc1 [CL2-16, Ethyl 3-(3-(N-methyl-N-(4-propoxyphenyl)sulfamoyl)thiophene-2-carboxamido) benzoate] has an EC50 (ABCA1) of 2360 nM and an EC50 (ABCA1 mRNA) of 3500 nM.
For CCOC(=O)c1cccc(NC(=O)c2sccc2S(=O)(=O)N(C)c2ccc(OCC)c(OCC)c2)c1 [CL2-43, Ethyl 3-(3-(N-(3,4-diethoxyphenyl)-N-methylsulfamoyl)thiophene-2-carboxamido)benzoate], the EC50 (ABCA1 mRNA) was 2800 nM.
In the case of CCOc1ccc(N(C)S(=O)(=O)c2cc(Cl)sc2C(=O)Nc2cccc(S(C)(=O)=O)c2)cc1OCC [CL2-63, 5-Chloro-3-(N-(3,4-diethoxyphenyl)-N-methylsulfamoyl)-N-(3-(methylsulfonyl)phenyl)thiophene-2-carboxamide], the EC50 (ABCA1) is reported as 12600 nM and the EC50 (ABCA1 mRNA) is reported as 4800 nM.
CCOc1ccc(N(C)S(=O)(=O)c2cc(Cl)sc2C(=O)Nc2cccc(C(=O)CC)c2)cc1OCC [CL2-64, 5-Chloro-3-(N-(3,4-diethoxyphenyl)-N-methylsulfamoyl)-N-(3-propionylphenyl)thiophene-2-carboxamide] was tested, and the EC50 (ABCA1 mRNA) was > 5000 nM.
Molecule CCOC(=O)c1cccc(NC(=O)c2sc(Cl)cc2S(=O)(=O)N(C)c2ccc(OCC)c(OC)c2)c1 [CL2-85, Ethyl 3-(5-chloro-3-(N-(4-ethoxy-3-methoxyphenyl)-N-methylsulfamoyl)thiophene-2-carboxamido)benzoate] has an EC50 (ABCA1) of 190 nM and an EC50 (ABCA1 mRNA) of 1100 nM.
CCOC(=O)c1cccc(NC(=O)c2sc(Cl)cc2S(=O)(=O)N(C)c2ccc(OCC)cc2F)c1 [CL2-143, Ethyl 3-(5-chloro-3-(N-(4-ethoxy-2-fluorophenyl)-N-methylsulfamoyl)thiophene-2-carboxamido)benzoate] gave an EC50 (ABCA1) of 1620 nM and an EC50 (ABCA1 mRNA) of 3500 nM.
With CCOC(=O)c1cccc(NC(=O)c2sc(Cl)cc2S(=O)(=O)N(C)c2ccc(OCC)nc2)c1 [CL2-159, Ethyl 3-(5-chloro-3-(N-(6-ethoxypyxidin-3-yl)-N-methylsulfamoyl)thiophene-2-carboxamido)benzoate] the EC50 (ABCA1) was 5390 nM and the EC50 (ABCA1 mRNA) was > 5000 nM.
CCOC(=O)c1cccc(NC(=O)c2sc(Cl)cc2S(=O)(=O)N(C)c2ccc(N3CCNCC3)cc2)c1 [CL2-200, Ethyl 3-(5-chloro-3-(N-methyl-N-(4-(piperazin-1-yl)phenyl)sulfamoyl)thiophene-2-carboxamido)benzoate] was tested, and the EC50 (ABCA1 mRNA) was 3700 nM.
CCOC(=O)c1cccc(NC(=O)c2sc(Cl)cc2S(=O)(=O)N(C)c2ccc(OCC)c(OCC)c2)n1 [CL3-2, Ethyl 6-(5-chloro-3-(N-(3,4-diethoxyphenyl)-N-methylsulfamoyl)thiophene-2-carboxamido)picolinate] was tested, and the EC50 (ABCA1 mRNA) was > 5000 nM.
CCOc1ccc(N(C)S(=O)(=O)c2cc(Cl)sc2C(=O)Nc2cc(Cl)ccc2F)cc1OC [GR1-001, 5-Chloro-N-(5-chloro-2-fluorophenyl)-3-(N-(4-ethoxy-3-methoxyphenyl)-N-methylsulfamoyl)thiophene-2-carboxamide] was tested, and the EC50 (ABCA1) was 820 nM.
CCOc1ccc(N(C)S(=O)(=O)c2cc(Cl)sc2C(=O)Nc2cc(C(F)(F)F)cc(C(F)(F)F)c2)cc1OC [GR1-002, N-(3,5-bis (trifluoromethyl)phenyl)-5-chloro-3-(N-(4-ethoxy-3-methoxyphenyl)-N-methylsulfamoyl)thiophene-2-carboxamide] gave an EC50 (ABCA1) of 2020 nM.
Work on CCOC(=O)c1cccc(-c2nnc(-c3sc(Cl)cc3S(=O)(=O)N(C)c3ccc(OCC)c(OC)c3)o2)c1 [GR1-015, Ethyl 3-(5-(5-chloro-3-(N-(4-ethoxy-3-methoxyphenyl)-N-methylsulfamoyl)thiophen-2-yl)-1,3,4-oxadiazol-2-yl)benzoate] yielded an EC50 (ABCA1) of 3080 nM.
In the case of C#CCOc1ccc(C(=O)c2ccc(OC(=O)c3cc(Cl)cc(NC(=O)c4sc(Cl)cc4S(=O)(=O)N(C)c4ccc(OCC)c(OC)c4)c3)cc2)cc1 [GR1-019, 4-(4-(Prop-2-yn-1-yloxy)benzoyl)phenyl 3-chloro-5-(5-chloro-3-(N-(4-ethoxy-3-methoxyphenyl)-N-methylsulfamoyl)thiophene-2-carboxamido)benzoate], the EC50 (ABCA1) is reported as 66 nM.
Work on CCOc1ccc(N(C)S(=O)(=O)c2cc(Cl)sc2C(=O)Nc2cccc(Cl)c2)cc1OC [GR1-046, 5-Chloro-N-(3-chlorophenyl)-3-(N-(4-ethoxy-3-methoxyphenyl)-N-methylsulfamoyl)thiophene-2-carboxamide] yielded an EC50 (ABCA1) of 2700 nM.
For CCOc1ccc(N(C)S(=O)(=O)c2cc(Cl)sc2C(=O)Nc2cccc(F)c2)cc1OC [GR1-047, 5-Chloro-3-(N-(4-ethoxy-3-methoxyphenyl)-N-methylsulfamoyl)-N-(3-fluorophenyl)thiophene-2-carboxamide], the EC50 (ABCA1) was 2530 nM.
CCOc1ccc(N(C)S(=O)(=O)c2cc(Cl)sc2C(=O)Nc2cccc(Br)c2)cc1OC [GR1-048, N-(3-bromophenyl)-5-chloro-3-(N-(4-ethoxy-3-methoxyphenyl)-N-methylsulfamoyl)thiophene-2-carboxamide] gave an EC50 (ABCA1) of 1240 nM.
CCOc1ccc(N(C)S(=O)(=O)c2cc(Cl)sc2C(=O)Nc2cc(Cl)cc(Cl)c2)cc1OC [GR1-049, 5-Chloro-N-(3,5-dichlorophenyl)-3-(N-(4-ethoxy-3-methoxyphenyl)-N-methylsulfamoyl)thiophene-2-carboxamide] showed an EC50 (ABCA1) of 790 nM.
For CCOc1ccc(N(C)S(=O)(=O)c2cc(Cl)sc2C(=O)Nc2cc(F)cc(Cl)c2)cc1OC [GR1-050, 5-Chloro-N-(3-chloro-5-fluorophenyl)-3-(N-(4-ethoxy-3-methoxyphenyl)-N-methylsulfamoyl)thiophene-2-carboxamide], the EC50 (ABCA1) was 1090 nM.
In the case of CCOc1ccc(N(C)S(=O)(=O)c2cc(Cl)sc2C(=O)Nc2cc(Cl)cc(Br)c2)cc1OC [GR1-051, N-(3-bromo-5-chlorophenyl)-5-chloro-3-(N-(4-ethoxy-3-methoxyphenyl)-N-methylsulfamoyl)thiophene-2-carboxamide], the EC50 (ABCA1) is reported as 3600 nM.
For CCOc1ccc(N(C)S(=O)(=O)c2cc(Cl)sc2C(=O)Nc2cc(Cl)cc(C(F)(F)F)c2)cc1OC [GR1-052, 5-Chloro-N-(3-chloro-5-(trifluoromethyl)phenyl)-3-(N-(4-ethoxy-3-methoxyphenyl)-N-methylsulfamoyl)thiophene-2-carboxamide], the EC50 (ABCA1) was 1550 nM.
CCOC(=O)c1cc(Br)cc(NC(=O)c2sc(Cl)cc2S(=O)(=O)N(C)c2ccc(OCC)c(OC)c2)c1 [GR1-054, Ethyl 3-bromo-5-(5-chloro-3-(N-(4-ethoxy-3-methoxyphenyl)-N-methylsulfamoyl)thiophene-2-carboxamido)benzoate] was tested, and the EC50 (ABCA1) was 564 nM.
CCOc1ccc(N(C)S(=O)(=O)c2cc(Cl)sc2C(=O)Nc2cc(Cl)cc(C(=O)Oc3ccccc3)c2)cc1OC [GR1-059, Phenyl 3-chloro-5-(5-chloro-3-(N-(4-ethoxy-3-methoxyphenyl)-N-methylsulfamoyl)thiophene-2-carboxamido)benzoate] gave an EC50 (ABCA1) of 135 nM.
CCOc1ccc(N(C)S(=O)(=O)c2cc(Cl)sc2C(=O)Nc2cc(Cl)cc([N+](=O)[O-])c2)cc1OC [GR1-064, 5-Chloro-N-(3-chloro-5-nitrophenyl)-3-(N-(4-ethoxy-3-methoxyphenyl)-N-methylsulfamoyl)thiophene-2-carboxamide] gave an EC50 (ABCA1) of 578 nM.
For CCOc1ccc(N(C)S(=O)(=O)c2cc(Cl)sc2C(=O)Nc2cc(Cl)cc(C(=O)Oc3ccc(C(C)=O)cc3)c2)cc1OC [GR1-067, 4-Acetylphenyl 3-chloro-5-(5-chloro-3-(N-(4-ethoxy-3-methoxyphenyl)-N-methylsulfamoyl)thiophene-2-carboxamido)benzoate], the EC50 (ABCA1) was 11 nM.
In the case of CCOc1ccc(N(C)S(=O)(=O)c2cc(Cl)sc2C(=O)Nc2cc(Cl)cc(C(=O)Oc3ccc(C(=O)c4ccccc4)cc3)c2)cc1OC [GR1-068, 4-Benzoylphenyl 3-chloro-5-(5-chloro-3-(N-(4-ethoxy-3-methoxyphenyl)-N-methylsulfamoyl)thiophene-2-carboxamido)benzoate], the EC50 (ABCA1) is reported as 148 nM.
CCOc1ccc(N(C)S(=O)(=O)c2cc(Cl)sc2C(=O)Nc2cc(Cl)cc(C(=O)Oc3ccc(C(=O)c4ccc(O)cc4)cc3)c2)cc1OC [GR1-069, 4-(4-Hydroxybenzoyl)phenyl 3-chloro-5-(5-chloro-3-(N-(4-ethoxy-3-methoxyphenyl)-N-methylsulfamoyl)thiophene-2-carboxamido)benzoate] was tested, and the EC50 (ABCA1) was 211 nM.
Molecule O=C(O)Cc1cccc(OCCCN(Cc2cccc(C(F)(F)F)c2Cl)CC(c2ccccc2)c2ccccc2)c1 [GW3965, reference compound] has an EC50 (ABCA1) of 269 nM.
